Experimental data published in PMC3671673, “In Vitro Morphological Assessment of Apoptosis Induced by Antiproliferative Constituents from the Rhizomes of Curcuma zedoaria” (Evidence-based Complementary and Alternative Medicine : eCAM, 2013).

Tests used:
[1] = test system: MCF-7 cells; test: Morphological changes by phase contrast inverted microscope, MCF-7; format: cell-based, human; details: MCF-7, 48 h, 12.5-50 μg/mL, phase contrast 200x
Method: (§1) Observation of morphological changes of apoptotic cells was performed according to the method with slight modifications. Briefly, 5 × 10^5 cells were incubated for 48 hours with or without selected compounds at concentrations of 12.5, 25, 40, and 50 μg/mL in a 60 mm diameter tissue culture dishes. The medium was discarded and cells were washed once with PBS. The morphological changes of the apoptotic cells were observed using phase contrast inverted microscope (Leica DMI 3000B, Germany) at 200x magnifications.

[2] = test system: Ca Ski cells; test: Morphological changes by phase contrast inverted microscope, Ca Ski; format: cell-based, human; details: 48 h, 12.5-50 μg/mL, phase contrast 200x
Method: as §1

Structure (SMILES)	morphological changes (in words) [1]	morphological changes (in words) [2]
C=C1CCC(C(C)C)=CC2C1CC[C@@]2(C)O (stereo partly shown) [Alismol, alismol]	typical apoptotic features	typical apoptotic features
C=CC1(C)Cc2occ(C)c2C(=O)C1C(=C)C (stereo not shown) [Curzerenone, curzerenone]	typical apoptotic features	typical apoptotic features
